From patent US9133115B2 (ACHILLION PHARMACEUTICALS, INC., priority 2008, dated 2015)
pEC50: −log10 of the molar value.

System: HCV replicon
Experiment: HCV replicon replication assay (NPT ELISA) in Huh-7 replicon-containing cells
Assay type: cell-based
Conditions: Hepatitis C virus, 72 h; HCV replicon in Huh-7 cells, three days incubation; read-out: EC50
Procedure, shortened: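 Huh-7 cells carrying a bicistronic HCV replicon (HCV-IRES-neo, EMCV-IRES-driven NS3–NS5B, 3′-NTR) were seeded at 6000-7500 cells/well, grown 24 h to 60-70% confluence, then treated with graded compound concentrations. Replication was read as NPT level by capture ELISA (rabbit anti-NPTII, Eu-N1 secondary); interferon alpha served as positive control.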

Compound | pEC50
C=C[C@@H]1C[C@]1(NC(=O)[C@@H]1C[C@@H](NC(=O)n2c3ccccc3c3ccccc32)CN1C(=O)[C@@H](CC(=O)N1CCCC(F)(F)C1)C(C)(C)C)C(=O)NS(=O)(=O)C1CC1 [Compound 178, N-((3R,5S)-1-((S)-2-tert-butyl-4-(3,3-difluoropiperidin-1-yl)-4-oxobutanoyl)-5-((1R,2S)-1-(cyclo-propylsulfonyl-carbamoyl)-2-vinylcyclopropyl-carbamoyl)pyrrolidin-3-yl)-9H-carbazole-9-carboxamide] | > 6.00
C=C[C@@H]1C[C@]1(NC(=O)[C@@H]1C[C@@H](Oc2cc(-c3ccccn3)nc3c(Cl)c(OC)ccc23)CN1C(=O)[C@@H](CC(=O)N1CCCCC1)C(C)(C)C)C(=O)NS(=O)(=O)C1CC1 [Compound 179, (2S,4R)-1-((S)-2-tert-butyl-4-oxo-4-(piperidin-1-yl)butanoyl)-4-(8-chloro-7-methoxy-2-(pyridin-2-yl)quinolin-4-yloxy)-N-((1R,2S)-1-(cyclopropyl-sulfonylcarbamoyl)-2-vinylcyclo-propyl)pyrrolidine-2-carboxamide] | > 6.00
C=C[C@@H]1C[C@]1(NC(=O)[C@@H]1C[C@@H](Oc2cc(-c3ccccn3)nc3c(Cl)c(OC)ccc23)CN1C(=O)[C@@H](CC(=O)N1CCOCC1)C(C)(C)C)C(=O)NS(=O)(=O)C1CC1 [Compound 180, (2S,4R)-1-((S)-2-tert-butyl-4-morpholino-4-oxobutanoyl)-4-(8-chloro-7-methoxy-2-(pyridin-2-yl)quinolin-4-yloxy)-N-((1R,2S)-1-(cyclopropyl-sulfonylcarbamoyl)-2-vinyl-cyclopropyl)pyr-rolidine-2-carboxamide] | > 6.00
C=C[C@@H]1C[C@]1(NC(=O)[C@@H]1C[C@@H](Oc2cc(-c3ccccn3)nc3c(Cl)c(OC)ccc23)CN1C(=O)[C@@H](CC(=O)N1CCCC(F)(F)C1)C(C)(C)C)C(=O)NS(=O)(=O)C1CC1 [Compound 181, (2S,4R)-1-((S)-2-tert-butyl-4-(3,3-difluoropiperidin-1-yl)-4-oxobutanoyl)-4-(8-chloro-7-methoxy-2-(pyridin-2-yl)quinolin-4-yloxy)-N-((1R,2S)-1-(cyclopropyl-sulfonylcarbamoyl)-2-vinyl-cyclopropyl)pyr-rolidine-2-carboxamide] | > 6.00
C=C[C@@H]1C[C@]1(NC(=O)[C@@H]1C[C@@H](Oc2cc(-c3ccccc3)nc3cc(OC)ccc23)CN1C(=O)[C@@H](CC(=O)N1CCC(c2ccccc2)CC1)C(C)(C)C)C(=O)NS(=O)(=O)C1CC1 [Compound 182, (2S,4R)-1-((S)-2-tert-butyl-4-oxo-4-(4-phenylpiperidin-1-yl)butanoyl)-N-((1R,2S)-1-(cyclopropylsulfonyl-carbamoyl)-2-vinylcyclopropyl)-4-(7-methoxy-2-phenylquinolin-4-yloxy)pyrrolidine-2-carboxamide] | > 6.00
C=C[C@@H]1C[C@]1(NC(=O)[C@@H]1C[C@@H](Oc2cc(-c3ccccc3)nc3cc(OC)ccc23)CN1C(=O)[C@@H](CC(=O)N1CCCC2CCCCC21)C(C)(C)C)C(=O)NS(=O)(=O)C1CC1 (stereo partly drawn) [Compound 183, (2S,4R)-1-((2S)-2-tert-butyl-4-(octa-hydroquinolin-1(2H)-yl)-4-oxobutanoyl)-N-((1R,2S)-1-(cyclopropylsulfonyl-carbamoyl)-2-vinylcyclopropyl)-4-(7-methoxy-2-phenylquinolin-4-yloxy)pyrrolidine-2-carboxamide] | > 6.00
C=C[C@@H]1C[C@]1(NC(=O)[C@@H]1C[C@@H](Oc2cc(-c3ccccc3)nc3cc(OC)ccc23)CN1C(=O)[C@@H](CC(=O)N1CC[C@@H](NC(=O)OC(C)(C)C)C1)C(C)(C)C)C(=O)NS(=O)(=O)C1CC1 [Compound 184, tert-butyl (R)-1-((S)-3-((2S,4R)-2-((1R,2S)-1-(cyclo-propylsulfonyl-carbamoyl)-2-vinyl-cyclopropyl-carbamoyl)-4-(7-methoxy-2-phenylquinolin-4-yloxy)pyrrolidine-1-carbonyl)-4,4-dime-thylpentanoyl)pyr-rolidin-3-ylcarbamate] | > 6.00
C=CC1C[C@]1(NC(=O)[C@@H]1C[C@@H](Oc2cc(-c3ccccc3)nc3cc(OC)ccc23)CN1C(=O)[C@@H](CC(=O)N1CC(C)CC(C)C1)C(C)(C)C)C(=O)NS(=O)(=O)C1CC1 (stereo partly drawn) [Compound 185] | > 6.00
C=C[C@@H]1C[C@]1(NC(=O)[C@@H]1C[C@@H](NC(=O)n2c3ccccc3c3ccccc32)CN1C(=O)[C@@H](CC(=O)N1CCC(F)(F)C1)C(C)(C)C)C(=O)NS(=O)(=O)C1CC1 [Compound 186, N-((3R,5S)-1-((S)-2-tert-butyl-4-(3,3-difluoropyrrolidin-1-yl)-4-oxobutanoyl)-5-((1R,2S)-1-(cyclopropylsulfonyl-carbamoyl)-2-vinyl-cyclopropyl-carbamoyl)pyrrolidin-3-yl)-9H-carbazole-9-carboxamide] | > 6.00
C=C[C@@H]1C[C@]1(NC(=O)[C@@H]1C[C@@H](NC(=O)n2c3ccccc3c3ccccc32)CN1C(=O)[C@@H](CC(=O)N1CCC(F)(F)CC1)C(C)(C)C)C(=O)NS(=O)(=O)C1CC1 [Compound 187, N-((3R,5S)-1-((S)-2-tert-butyl-4-(4,4-difluoropiperidin-1-yl)-4-oxobutanoyl)-5-((1R,2S)-1-(cyclopropylsulfonyl-carbamoyl)-2-vinyl-cyclopropyl-carbamoyl)pyrrolidin-3-yl)-9H-carbazole-9-carboxamide] | > 6.00
C=C[C@@H]1C[C@]1(NC(=O)[C@@H]1C[C@@H](NC(=O)n2c3ccccc3c3ccccc32)CN1C(=O)[C@@H](CC(=O)N1CCCC(F)C1)C(C)(C)C)C(=O)NS(=O)(=O)C1CC1 (stereo partly drawn) [Compound 188, N-((3R,5S)-1-((2S)-2-tert-butyl-4-(3-fluoropiperidin-1-yl)-4-oxobutanoyl)-5-((1R,2S)-1-(cyclopropylsulfonyl-carbamoyl)-2-vinyl-cyclopropyl-carbamoyl)pyrrolidin-3-yl)-9H-carbazole-9-carboxamide] | > 6.00
C=C[C@@H]1C[C@]1(NC(=O)[C@@H]1C[C@@H](NC(=O)n2c3ccccc3c3ccccc32)CN1C(=O)[C@@H](CC(=O)N1CCC(F)CC1)C(C)(C)C)C(=O)NS(=O)(=O)C1CC1 [Compound 189, N-((3R,5S)-1-((S)-2-tert-butyl-4-(4-fluoropiperidin-1-yl)-4-oxobutanoyl)-5-((1R,2S)-1-(cyclo-propylsulfonyl-carbamoyl)-2-vinylcyclopropyl-carbamoyl)pyrrolidin-3-yl)-9H-carbazole-9-carboxamide] | > 6.00
C=C[C@@H]1C[C@]1(NC(=O)[C@@H]1C[C@@H](NC(=O)n2c3ccccc3c3ccccc32)CN1C(=O)[C@@H](CC(=O)N1CCC(C(F)(F)F)CC1)C(C)(C)C)C(=O)NS(=O)(=O)C1CC1 [Compound 190, N-((3R,5S)-1-((S)-2-tert-butyl-4-oxo-4-(4-(trifluoromethyl)piper-idin-1-yl)butanoyl)-5-((1R,2S)-1-(cyclopropylsulfonyl-carbamoyl)-2-vinylcyclopropyl-carbamoyl)pyrrolidin-3-yl)-9H-carbazole-9-carboxamide] | > 6.00
C=C[C@@H]1C[C@]1(NC(=O)[C@@H]1C[C@@H](N(Cc2ccccn2)C(=O)n2c3ccccc3c3ccccc32)CN1C(=O)[C@@H](CC(=O)N1CCCCC1)C(C)(C)C)C(=O)NS(=O)(=O)C1CC1 [Compound 191, N-((3R,5S)-1-((S)-2-tert-butyl-4-oxo-4-(piperidin-1-yl)butanoyl)-5-((1R)-1-(cyclopropylsulfonyl-carbamoyl)-2-vinyl-cyclopropyl-carbamoyl)pyrrolidin-3-yl)-N-(pyridin-2-ylmethyl)-9H-carbazole-9-carboxamide] | > 6.00
C=C[C@@H]1C[C@]1(NC(=O)[C@@H]1C[C@@H](N(Cc2ccccn2)C(=O)n2c3ccccc3c3ccccc32)CN1C(=O)[C@@H](CC(=O)N1CCCC(F)(F)C1)C(C)(C)C)C(=O)NS(=O)(=O)C1CC1 [Compound 192, N-((3R,5S)-1-((S)-2-tert-butyl-4-(3,3-difluoropiperidin-1-yl)-4-oxobutanoyl)-5-((1R)-1-(cyclopropylsulfonyl-carbamoyl)-2-vinylcyclopropyl-carbamoyl)pyrrolidin-3-yl)-N-(pyridin-2-ylmethyl)-9H-carbazole-9-carboxamide] | > 6.00
C=C[C@@H]1C[C@]1(NC(=O)[C@@H]1C[C@@H](N(Cc2ccccn2)C(=O)n2c3ccccc3c3ccccc32)CN1C(=O)[C@@H](CC(=O)N1CCC(F)(F)C1)C(C)(C)C)C(=O)NS(=O)(=O)C1CC1 [Compound 193, N-((3R,5S)-1-((S)-2-tert-butyl-4-(3,3-difluoropyrrolidin-1-yl)-4-oxobutanoyl)-5-((1R)-1-(cyclopropylsulfonyl-carbamoyl)-2-vinylcyclopropyl-carbamoyl)pyrrolidin-3-yl)-N-(pyridin-2-ylmethyl)-9H-carbazole-9-carboxamide] | > 6.00
C=C[C@@H]1C[C@]1(NC(=O)[C@@H]1C[C@@H](Oc2cc(-c3ccccn3)nc3c(Cl)c(OC)ccc23)CN1C(=O)[C@@H](CC(=O)N1CCC(F)(F)CC1)C(C)(C)C)C(=O)NS(=O)(=O)C1CC1 [Compound 194, (2S,4R)-1-((S)-2-tert-butyl-4-(4,4-difluoropiperidin-1-yl)-4-oxobutanoyl)-4-(8-chloro-7-methoxy-2-(pyridin-2-yl)quinolin-4-yloxy)-N-((1R)-1-(cyclopropyl-sulfonylcarbamoyl)-2-vinyl-cyclopropyl)pyr-rolidine-2-carboxamide] | > 6.00
C=C[C@@H]1C[C@]1(NC(=O)[C@@H]1C[C@@H](Oc2cc(-c3ccccc3)nc3cc(OC)ccc23)CN1C(=O)[C@@H](CC(=O)N1CCN(S(=O)(=O)CC)CC1)C(C)(C)C)C(=O)NS(=O)(=O)C1CC1 [Compound 195, (2S,4R)-1-((S)-2-tert-butyl-4-(4-(ethylsulfonyl)piper-azin-1-yl)-4-oxobutanoyl)-N-((1R)-1-(cyclopropylsulfonyl-carbamoyl)-2-vinylcyclopropyl)-4-(7-methoxy-2-phenylquinolin-4-yloxy)pyrrolidine-2-carboxamide] | > 6.00
